Measured values reported in patent US6670446B1, “N1 modified glycopeptides” (Eli Lilly and Company, priority 1998, dated 2003).

Assays:
Format in all cases: cell-based
[1] = test system: Staphylococcus aureus X400; assay: MIC, standard broth micro-dilution assay, SA X400
Experimental: (§1) The antibacterial efficacy of the present compounds is illustrated by Table III. The minimal inhibitory concentrations (MICs) were determined using a standard broth micro-dilution assay.

[2] = test system: Enterococcus faecium 180-1; assay: MIC, standard broth micro-dilution assay, EF 180-1
Experimental: as §1

[3] = test system: Staphylococcus haemolyticus 105; assay: MIC, standard broth micro-dilution assay, SH 105
Experimental: as §1

[4] = test system: Staphylococcus aureus SA1199A; assay: MIC, standard broth micro-dilution assay, SA 1199A
Experimental: as §1

[5] = test system: Staphylococcus aureus SA1199; assay: MIC, standard broth micro-dilution assay, SA 1199
Experimental: as §1

[6] = test system: Staphylococcus aureus X778; assay: MIC, standard broth micro-dilution assay, SA X778
Experimental: as §1

[7] = test system: Staphylococcus aureus 489; assay: MIC, standard broth micro-dilution assay, SA 489
Experimental: as §1

[8] = test system: Staphylococcus haemolyticus 415; assay: MIC, standard broth micro-dilution assay, SH 415
Experimental: as §1

Enterococcus faecium 180 = assay: MIC, standard broth micro-dilution assay, EF 180
Experimental: as §1

[9] = test system: Resistant Enterococcus faecium and faecalis; assay: MIC, standard broth micro-dilution assay, Resistant; details: geometric mean of 4-6 isolates
Experimental: as §1

[10] = test system: Staphylococcus aureus 446; assay: MIC, standard broth micro-dilution assay, SA 446
Experimental: as §1

[11] = test system: Staphylococcus epidermidis 270; assay: MIC, standard broth micro-dilution assay, SE 270
Experimental: as §1

[12] = test system: Staphylococcus aureus 491; assay: MIC, standard broth micro-dilution assay, SA 491
Experimental: as §1

Escherichia coli EC14 = assay: MIC, standard broth micro-dilution assay, EC 14
Experimental: as §1

[13] = test system: Enterococcus faecalis 276; assay: MIC, standard broth micro-dilution assay, EF 276
Experimental: as §1

[14] = test system: Staphylococcus aureus S13E
Experimental: as §1

[15] = test system: Enterococcus faecalis 2041; assay: MIC, standard broth micro-dilution assay, EF 2041
Experimental: as §1

[16] = test system: Enterococcus gallinarum 245; assay: MIC, standard broth micro-dilution assay, EG 245
Experimental: as §1

[17] = test system: Haemophilus influenzae RD; assay: MIC, standard broth micro-dilution assay, HFRD
Experimental: as §1

[18] = test system: Sensitive Enterococcus faecium and faecalis; assay: MIC, standard broth micro-dilution assay, Sensitive; details: geometric mean of 4-6 isolates
Experimental: as §1

[19] = test system: Staphylococcus aureus 447; assay: MIC, standard broth micro-dilution assay, SA 447
Experimental: as §1

Structure (SMILES): CC(C)CCC(=O)NC1C(=O)NC(CC(N)=O)C(=O)NC2C(=O)NC3C(=O)NC(C(=O)NC(C(=O)O)c4cc(O)cc(O)c4-c4cc3ccc4O)C(OC3CC(C)(N)C(O)C(C)O3)c3ccc(c(Cl)c3)Oc3cc2cc(c3OC2OC(CO)C(O)C(O)C2OC2CC(C)(NCc3ccc(-c4ccc(Cl)cc4)cc3)C(O)C(C)O2)Oc2ccc(cc2Cl)C1O (centres unmarked) [Example 7, N^1-(4-methyl-n-pentanoyl)-N^DISACC-[p-(p-chlorophenyl)benzyl]desleucylA82846B]
- minimal inhibitory concentration (MIC), SA X400 [1]: 0.5
- minimal inhibitory concentration (MIC), EF 180-1 [2]: ≦.06
- minimal inhibitory concentration (MIC), SH 105 [3]: ≦.06
- minimal inhibitory concentration (MIC), SA 1199A [4]: ≦.06
- minimal inhibitory concentration (MIC), SA 1199 [5]: 1
- minimal inhibitory concentration (MIC), SA X778 [6]: 1
- minimal inhibitory concentration (MIC), SA 489 [7]: 1
- minimal inhibitory concentration (MIC), SH 415 [8]: 1
- minimal inhibitory concentration (MIC), EF 180 (Enterococcus faecium 180): 1
- minimal inhibitory concentration (MIC), Resistant [9]: 3.4
- minimal inhibitory concentration (MIC), SA 446 [10]: 0.5
- minimal inhibitory concentration (MIC), SE 270 [11]: ≦.06
- minimal inhibitory concentration (MIC), SA 491 [12]: 0.125
- minimal inhibitory concentration (MIC), EC 14 (Escherichia coli EC14): >64
- minimal inhibitory concentration (MIC), EF 276 [13]: ≦.06
- minimal inhibitory concentration (MIC), SA S13E [14]: 0.5
- minimal inhibitory concentration (MIC), EF 2041 [15]: ≦.06
- minimal inhibitory concentration (MIC), EG 245 [16]: ≦.06
- minimal inhibitory concentration (MIC), HFRD [17]: 64
- minimal inhibitory concentration (MIC), Sensitive [18]: 0.22
- minimal inhibitory concentration (MIC), SA 447 [19]: 0.5

Structure (SMILES): CC1OC(OC2c3ccc(c(Cl)c3)Oc3cc4cc(c3OC3OC(CO)C(O)C(O)C3OC3CC(C)(NCc5ccc(-c6ccccc6)cc5)C(O)C(C)O3)Oc3ccc(cc3Cl)C(O)C(NC(=O)C(CCCCNC(=O)OC(C)(C)C)NC(=O)OC(C)(C)C)C(=O)NC(CC(N)=O)C(=O)NC4C(=O)NC3C(=O)NC2C(=O)NC(C(=O)O)c2cc(O)cc(O)c2-c2cc3ccc2O)CC(C)(N)C1O [Example 19, N^1-(N^1N′-DIBOC-D-lysine) derivative of N^DISACC-(p-phenylbenzyl)desleucylA82846B]
- minimal inhibitory concentration (MIC), SA X400 [1]: 2
- minimal inhibitory concentration (MIC), EF 180-1 [2]: 1
- minimal inhibitory concentration (MIC), SH 105 [3]: 4
- minimal inhibitory concentration (MIC), SA 1199A [4]: no growth
- minimal inhibitory concentration (MIC), SA 1199 [5]: 2
- minimal inhibitory concentration (MIC), SA X778 [6]: 2
- minimal inhibitory concentration (MIC), SA 489 [7]: 1
- minimal inhibitory concentration (MIC), SH 415 [8]: 4
- minimal inhibitory concentration (MIC), EF 180 (Enterococcus faecium 180): 8
- minimal inhibitory concentration (MIC), Resistant [9]: 64
- minimal inhibitory concentration (MIC), SA 446 [10]: 2
- minimal inhibitory concentration (MIC), SE 270 [11]: 2
- minimal inhibitory concentration (MIC), SA 491 [12]: 1
- minimal inhibitory concentration (MIC), EC 14 (Escherichia coli EC14): >64
- minimal inhibitory concentration (MIC), EF 276 [13]: 2
- minimal inhibitory concentration (MIC), SA S13E [14]: 2
- minimal inhibitory concentration (MIC), EF 2041 [15]: 0.5
- minimal inhibitory concentration (MIC), EG 245 [16]: 2
- minimal inhibitory concentration (MIC), HFRD [17]: >64
- minimal inhibitory concentration (MIC), Sensitive [18]: 2.6
- minimal inhibitory concentration (MIC), SA 447 [19]: 2

Structure (SMILES): CC1OC(OC2c3ccc(c(Cl)c3)Oc3cc4cc(c3OC3OC(CO)C(O)C(O)C3OC3CC(C)(NCc5ccc(-c6ccccc6)cc5)C(O)C(C)O3)Oc3ccc(cc3Cl)C(O)C(NC(=O)C(N)Cc3ccc(Cl)cc3)C(=O)NC(CC(N)=O)C(=O)NC4C(=O)NC3C(=O)NC2C(=O)NC(C(=O)O)c2cc(O)cc(O)c2-c2cc3ccc2O)CC(C)(N)C1O [Example 22, N^1-[D-3-(p-chlorophenyl)alanine] derivative of N^DISACC-(p-phenylbenzyl)desleucylA82846B]
- minimal inhibitory concentration (MIC), SA X400 [1]: 0.5
- minimal inhibitory concentration (MIC), EF 180-1 [2]: ≦.06
- minimal inhibitory concentration (MIC), SH 105 [3]: 2
- minimal inhibitory concentration (MIC), SA 1199A [4]: 0.25
- minimal inhibitory concentration (MIC), SA 1199 [5]: 2
- minimal inhibitory concentration (MIC), SA X778 [6]: 1
- minimal inhibitory concentration (MIC), SA 489 [7]: 1
- minimal inhibitory concentration (MIC), SH 415 [8]: 4
- minimal inhibitory concentration (MIC), EF 180 (Enterococcus faecium 180): 2
- minimal inhibitory concentration (MIC), Resistant [9]: 6.7
- minimal inhibitory concentration (MIC), SA 446 [10]: 1
- minimal inhibitory concentration (MIC), SE 270 [11]: 0.25
- minimal inhibitory concentration (MIC), SA 491 [12]: 0.5
- minimal inhibitory concentration (MIC), EC 14 (Escherichia coli EC14): >64
- minimal inhibitory concentration (MIC), EF 276 [13]: 1
- minimal inhibitory concentration (MIC), SA S13E [14]: 2
- minimal inhibitory concentration (MIC), EF 2041 [15]: 1
- minimal inhibitory concentration (MIC), EG 245 [16]: 0.25
- minimal inhibitory concentration (MIC), HFRD [17]: >64
- minimal inhibitory concentration (MIC), Sensitive [18]: 0.66
- minimal inhibitory concentration (MIC), SA 447 [19]: 1

Structure (SMILES): CNC(C(=O)NC1C(=O)NC(CC(N)=O)C(=O)NC2C(=O)NC3C(=O)NC(C(=O)NC(C(=O)O)c4cc(O)cc(O)c4-c4cc3ccc4O)C(OC3CC(C)(N)C(O)C(C)O3)c3ccc(c(Cl)c3)Oc3cc2cc(c3OC2OC(CO)C(O)C(O)C2OC2CC(C)(N)C(O)C(C)O2)Oc2ccc(cc2Cl)C1O)C(C)C [Example 42, N^1-(N-methyl-D-valine) derivative of desleucylA82846B]
- minimal inhibitory concentration (MIC), SA X400 [1]: 0.5
- minimal inhibitory concentration (MIC), SH 105 [3]: 0.5
- minimal inhibitory concentration (MIC), SA X778 [6]: 2
- minimal inhibitory concentration (MIC), SA 489 [7]: 0.5
- minimal inhibitory concentration (MIC), SH 415 [8]: 1
- minimal inhibitory concentration (MIC), EF 180 (Enterococcus faecium 180): 64
- minimal inhibitory concentration (MIC), Resistant [9]: 128
- minimal inhibitory concentration (MIC), SA 446 [10]: 0.5
- minimal inhibitory concentration (MIC), SE 270 [11]: 1
- minimal inhibitory concentration (MIC), SA 491 [12]: 1
- minimal inhibitory concentration (MIC), EC 14 (Escherichia coli EC14): >64
- minimal inhibitory concentration (MIC), SA S13E [14]: 1
- minimal inhibitory concentration (MIC), Sensitive [18]: 0.66
- minimal inhibitory concentration (MIC), SA 447 [19]: 0.5

Structure (SMILES): CC(C)C[C@@H](NC(=O)OC(C)(C)C)C(=O)N[C@H]1C(=O)N[C@@H](CC(N)=O)C(=O)N[C@H]2C(=O)N[C@H]3C(=O)NC(C(=O)N[C@H](C(=O)O)c4cc(O)cc(O)c4-c4cc3ccc4O)[C@H](OC3CC(C)(N)C(O)C(C)O3)c3ccc(c(Cl)c3)Oc3cc2cc(c3OC2OC(CO)C(O)C(O)C2OC2CC(C)(N)C(O)C(C)O2)Oc2ccc(cc2Cl)[C@H]1O (stereo partly drawn) [Example 14, N^1-(N-BOC-D-leucine) derivative of desleucylA82846B]
- minimal inhibitory concentration (MIC), Resistant [9]: >128
- minimal inhibitory concentration (MIC), Sensitive [18]: 6.1

Structure (SMILES): CC1OC(OC2c3ccc(c(Cl)c3)Oc3cc4cc(c3OC3OC(CO)C(O)C(O)C3OC3CC(C)(NCc5ccc(-c6ccc(Cl)cc6)cc5)C(O)C(C)O3)Oc3ccc(cc3Cl)C(O)C(NC(=O)CCCCCCN)C(=O)NC(CC(N)=O)C(=O)NC4C(=O)NC3C(=O)NC2C(=O)NC(C(=O)O)c2cc(O)cc(O)c2-c2cc3ccc2O)CC(C)(N)C1O (centres unmarked) [Example 10, N^1-(7-amino-n-heptanoyl)-N^DISACC-[p-(p-chlorophenyl)benzyl]desleucylA82846B]
- minimal inhibitory concentration (MIC), Resistant [9]: 5.7
- minimal inhibitory concentration (MIC), Sensitive [18]: 0.57

Structure (SMILES): CC1OC(OC2C(Oc3c4cc5cc3Oc3ccc(cc3Cl)[C@@H](O)[C@@H](NC(=O)[C@@H](CCCCNC(=O)OC(C)(C)C)NC(=O)OC(C)(C)C)C(=O)N[C@@H](CC(N)=O)C(=O)N[C@H]5C(=O)N[C@H]3C(=O)NC(C(=O)N[C@H](C(=O)O)c5cc(O)cc(O)c5-c5cc3ccc5O)[C@H](OC3CC(C)(N)C(O)C(C)O3)c3ccc(c(Cl)c3)O4)OC(CO)C(O)C2O)CC(C)(N)C1O (stereo partly drawn) [Example 16, N^1-(N,N′-DIBOC-D-lysine) derivative of desleucylA82846B]
- minimal inhibitory concentration (MIC), Resistant [9]: >128
- minimal inhibitory concentration (MIC), Sensitive [18]: 7
